This test deals with CEM cells HIV-1 protection, formazan growth assay. Briefly: NCI AIDS Antiviral Assay. The conditions noted are these: for IC50: measured here: growth of uninfected CEM cells. Summed up:
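Human CEM cells, uninfected and HIV-1-infected, received five drug concentrations, and growth was read by soluble formazan assay. Compounds giving at least 50% protection were retested; reproducible 100% protection defined confirmed active.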

The source made the active and inactive calls.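 How the source made its calls: active means compounds giving half or more protection of infected cells from virus-caused growth loss, again on retest; inactive means the rest.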

Consider `CC1=C(c2cc(C(=O)Nc3cccc(C(F)(F)F)c3)ncn2)Sc2ccccc2N1`, for which the EC50 is greater than 83.2 µM and the IC50 was greater than 83.2 µM.

`NCCCCCCn1c(-c2ccc(Br)cc2)csc1=Nc1ccccc1`: the EC50 was greater than 200 µM and the IC50 is 3.55 µM.

As to `CCN(CC)CCOC(=O)c1ccc(N)cc1`, the EC50 was greater than 200 µM and the IC50 was greater than 200 µM.

For `C=C(C)CCC1CC=[N+]([O-])OC1C(C)(C)C` (configuration not stated), the EC50 is greater than 200 µM and the IC50 turned out to be 28.8 µM.

As to `CC(C)(Cc1ccccc1)C(=C=C=C=C(c1ccccc1)C(C)(C)Cc1ccccc1)c1ccccc1`, the EC50 is greater than 46.8 µM and the IC50 is greater than 46.8 µM.

For the compound `O=C1Oc2cc(O)ccc2C2OCNCC12` (configuration not stated), the EC50 was greater than 200 µM and the IC50 is greater than 200 µM.

Turning to `CC(C)C(NCc1c2ccccc2[n+](C)c2ccccc12)C(=O)O` (configuration not stated), the outcome was inactive.

With `N#Cc1ccccc1Nc1ccccc1S`, the EC50 is greater than 16.6 µM and the IC50 is greater than 16.6 µM.

In the case of `CC(C)N(C(=O)C12C3C4C1C1C2C3C41C(N)=O)C(C)C` (configuration not stated), the EC50 is greater than 912 µM and the half-inhibitory concentration (IC50) is greater than 912 µM.

Regarding `CN(Cc1ccccc1)C(=NC#N)N(Cc1ccccc1)Cc1ccccc1`, the EC50 was greater than 19.5 µM and the 50% inhibitory concentration (IC50) is greater than 19.5 µM.

Take `N#CC(C(=O)CCC(=O)Nc1cccc(C(F)(F)F)c1)c1ccc(Cl)cc1` (configuration not stated): the outcome was inactive.

With `CC1=C(C(=O)O)CCC2(C)c3ccc(C(C)C)c(O)c3CCC12` (configuration not stated), the EC50 is greater than 200 µM and the IC50 worked out at 46.8 µM.

As for `COCCN(C(C)=O)C1CCC2(SCCS2)c2[nH]c3ccccc3c21` (configuration not stated), the EC50 was greater than 200 µM and the IC50 is greater than 200 µM.

As for `COC(=O)C1(C(=O)OC)C2(CCCC2)C1(C(=O)OC)C(=O)OC`, the EC50 was greater than 200 µM and the IC50 was greater than 200 µM.

Take `CCC1(c2ccccc2)OCC(=O)NC1=O` (configuration not stated): the EC50 was greater than 200 µM and the IC50 is greater than 200 µM.

Turning to `O=C(COC(=O)c1cccc2c(=O)c3ccccc3[nH]c12)Nc1ccc(Cl)cc1`, the outcome was inactive.

As for `O=C1NC2NC3NC(=O)NC3NC2N1` (configuration not stated), the EC50 is greater than 200 µM and the half-maximal inhibitory concentration (IC50) is greater than 200 µM.

With `CC1=C(C(=O)NCc2ccccc2)C(c2ccc([N+](=O)[O-])cc2)C(C(=O)NCc2ccccc2)=C(C)N1`, the EC50 is greater than 14.5 µM and the IC50 was greater than 14.5 µM.

For the compound `[N-]=[N+]=C(C(=O)CN1CCCC1=O)S(=O)(=O)c1ccccc1`, the EC50 was greater than 813 µM and the half-maximal inhibitory concentration (IC50) was 437 µM.

For the compound `CN(CC(=O)O)S(=O)(=O)c1ccc(F)cc1`, the outcome was inactive.

With `Cc1cc(=O)c2c(ccc3c(=O)cc(C)[nH]c32)[nH]1`, the EC50 was greater than 257 µM and the IC50 was found to be 240 µM.

On to `O=S(=O)(O)c1cc2cc(S(=O)(=O)O)c(O)cc2cc1O`, for which the outcome was inactive.

`Cc1nc(N)c(N2CCN(C(=O)O)CC2)c(=O)[nH]1`: the EC50 was greater than 200 µM and the IC50 was greater than 200 µM.

Regarding `Cc1oc2c(c1C)S(=O)(=O)C(C#N)=C(N(C)C)N2`, the EC50 is greater than 200 µM and the IC50 was greater than 200 µM.

Consider `COC(=O)C(CC(=O)c1c[nH]c2ccccc12)c1c[nH]c2ccccc12` (configuration not stated), for which the outcome was inactive.

On to `CC(=O)NC1(C)CCC(C(C)(C)NC(C)=O)CC1` (configuration not stated), for which the EC50 was greater than 200 µM and the IC50 is greater than 200 µM.

For `C=CCOC(C)(C)C1=CCC(C)CC1` (configuration not stated), the EC50 was greater than 100 µM and the IC50 was greater than 100 µM.

Take `O=C(Nc1ccccc1F)c1c(O)nc2sccn2c1=O`: the EC50 was greater than 200 µM and the IC50 was 51.3 µM.

`CCOC(=O)/C(O)=C(/C=N\C(=S)Nc1ccccc1Cl)C(=O)OCC`: the EC50 is greater than 200 µM and the IC50 was greater than 200 µM.

As for `COc1ccc(-c2noc(=O)c3ccccc23)cc1`, the outcome was inactive.

As for `Cn1c(N)c(/C=N/NC(=O)CC#N)c(=O)n(C)c1=O`, the EC50 was greater than 200 µM and the IC50 is greater than 200 µM.

Consider `CNC1=C(C)C(=O)C(=O)C([C@H](C)CCC=C(C)C)=C1O`, for which the EC50 was greater than 200 µM and the IC50 was 6.17 µM.

As a reminder, the EC50 is the concentration that produces a half-maximal response. In general, IC50 refers to the concentration needed to halve the response being measured. A higher IC50 goes with weaker potency in that assay.

The values are drawn from PubChem BioAssay AID179 (DTP/NCI, 2004).
